Assay results: PubChem BioAssay AID179 (DTP/NCI, 2004)
Activity calls are given as the source filed them.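 How the source made its calls: active means compounds giving half or more protection of infected cells from virus-caused growth loss, again on retest; inactive means the rest.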 Where a SMILES comes first, the peptide text is derived from it. [ ]: non-standard residue; d: D form. The star is where a group is joined. Myristoyl = CCCCCCCCCCCCCC(=O)*; Cbz = O=C(OCc1ccccc1)*; Boc = CC(C)(C)OC(=O)*; Lac = C[CH](O)C(=O)O; OBn = c1ccc(CO*)cc1

System: CEM cells HIV-1 protection, formazan growth assay
Assay: NCI AIDS Antiviral Assay
Conditions: for IC50: measured here: growth of uninfected CEM cells
In short: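 Steps: treat uninfected and HIV-1-infected human CEM cells at five drug levels; quantify growth by soluble formazan; retest any compound reaching 50% protection; classify actives from the retest.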

SMILES	EC50	IC50	outcome
O=C1C=C(Nc2ccc(S(=O)(=O)Nc3ncccn3)cc2)c2ccccc2C1=O	> 447 µM	67.6 µM	
CC(C)(C)[Si](C)(C)OCC1OC(n2ccc(=O)[nH]c2=O)C(O[Si](C)(C)C(C)(C)C)C12OC2C(=O)NN (stereo not given)	> 200 µM	7.41 µM	
CC(=O)Nc1ccc(/C=C/C(=O)c2sc(C(N)=S)nc2C)cc1	> 75.9 µM	> 75.9 µM	
CCCCCCCCCCCCCC(=O)NCC(=O)NC(CC(N)=O)C(=O)NC(C)C(=O)NC(C)C(=O)NC(C)C(=O)NC(C)C(=O)NC(CCCCN)C(=O)NC(CCCCN)C(=O)NCC(=O)NC(Cc1ccc(O)cc1)C(N)=O (stereo not given) (Myristoyl-GNAAAAKKGY-NH2; configuration not given here)	> 214 µM	> 214 µM	
N[C@H](CCOc1ccc(/C(=N/O)C(=O)N[C@H]2CN([C@@H](C(=O)O)c3ccc(O)cc3)C2=O)cc1)C(=O)O	> 200 µM	> 200 µM	
CC(=O)Oc1ccc([As](=O)(O)O)cc1N	> 200 µM	> 200 µM	
CC(OC(=O)C(Cc1ccccc1)NC(=O)C(Cc1ccccc1)NC(=O)OC(C)(C)C)C(=O)OCc1ccccc1 (stereo not drawn) (Boc-Phe-Phe-[Lac]-OBn; configuration not given here)	> 200 µM	105 µM	
C[C@]12CC[C@@H]3c4ccc(OC(=O)N(CCCl)CCCl)cc4CC[C@H]3[C@@H]1CC[C@@H]2O	> 200 µM	1.7 µM	
COC1/C=C/C=C/C=C/CC(OC(=O)C(C)NC(=O)C2CCCCC2)C(C)C(O)/C(C)=C\CCc2c(O)c(cc3c2SCC(=O)N3)NC(=O)C1 (stereo not given)	> 2 µM	0.229 µM	
N#C/C(=C\c1ccccc1)c1ccc(Cl)cc1	> 200 µM	57.5 µM	
Cc1ccccc1C(=O)NC(O)(C(F)(F)F)C(F)(F)F			inactive
CC1=NN(C(=O)c2ccc(Cl)cc2)C(=O)/C1=C/c1cccc(O)c1	> 7.94 µM	> 7.94 µM	
CCCCCCCCCCCCCCCCCC(=O)OCC(COC1OC(COS(=O)(=O)O)C(O)C(O)C1O)OC(=O)CCCCCCCCCCCCCCCCC (stereo not given)			inactive
C/C(=N/OC(=O)N(C)C)c1cccs1	> 200 µM	> 200 µM	
CC(=O)Nc1ccc(C(=O)OCC2OC(n3cc(C)c(=O)[nH]c3=O)CC2N=[N+]=[N-])cc1 (stereo not given)	0.148 µM	38.9 µM	
CCOC(=O)C1=C(NC)OCC1=O			inactive
Cn1c2ccccc2n2c3ccccc3c3nnc(N)c-3c12	> 200 µM	28.2 µM	
S=c1sc2nc(Cl)nc(Cl)c2s1	> 200 µM	13.2 µM	
CCN(CC)CCCC(C)Nc1cc(-c2ccccc2)nc2cc(Cl)ccc12 (stereo not given)	> 427 µM	2.45 µM	
Cc1cc(C)nc(NC(N)=NCCc2ccccc2)n1	> 200 µM	3.31 µM	
c1ccc(N2CCN(c3ccccn3)CC2)nc1	> 100 µM	> 100 µM	

SMILES	EC50	IC50	outcome
Cc1ccc2oc(=O)c(C#N)c(C)c2c1	> 25.1 µM	> 25.1 µM	
CC(C(=O)O)c1ccc2c(c1)[nH]c1ccc(Cl)cc12 (stereo not given)	> 245 µM	141 µM	
NC(=O)N/N=C(/CC1C(=O)Oc2ccccc21)c1ccccc1O (stereo not given)	> 550 µM	295 µM	
O=C(N/N=C1\CCc2ccccc21)N/N=C1\CCc2ccccc21	> 200 µM	> 200 µM	
S=c1[nH]c(=S)c2sc(=S)n(-c3ccccc3)c2[nH]1	> 115 µM	56.2 µM	
CCCNC(=O)N(CC(C)(C)C)S(=O)(=O)c1ccc(Cl)cc1			inactive
C=C1C(=O)O[C@@H]2CC(C)C3C(OC(C)=O)CC(OC(C)=O)[C@@]3(C)C[C@H]12 (stereo not given in full)	> 102 µM	5.37 µM	
C=CCONC(=O)c1ccc(Cl)cc1	> 617 µM	525 µM	
CCN(CCCN(CC)C(=O)Nc1c(C)cccc1C)C(=O)Nc1c(C)cccc1C	> 200 µM	> 200 µM	
COc1ccc(/C=C/C(=O)c2c(-c3ccccc3)nn(C)c(=O)c2N2CCCC2)cc1	> 67.6 µM	> 67.6 µM	
C/C=C(\CC)C(C#N)O[Si](C)(C)C (stereo not given)			inactive
O=C1C[C@@]23CCC4(CC2CCC[C@H]3O1)OCCO4 (stereo not given in full)			inactive
O=S1(=O)C/C(=C\N2CCOCC2)c2ccccc21	> 200 µM	> 200 µM	
COc1ccc(-c2cc(-c3ccco3)c(C#N)c(=S)n2C2OC(CO)C(O)C(O)C2O)cc1 (stereo not given)	37.2 µM	> 200 µM	
CCOC(=O)NC(=O)c1cn(CCN2CCN(C(=O)CNC(=O)CNC(=O)Cn3cc(C(=O)NC(=O)OCC)c(=O)[nH]c3=O)CC2)c(=O)[nH]c1=O			inactive
COC(=O)/C(=N\Nc1nnc(C)n1N)C(C#N)c1ccccc1 (stereo not given)	> 575 µM	93.3 µM	
CCOC(=O)C(C)NC(=O)C(C)NC(=O)C(C)NC(=O)C(C)NC(=O)C(C)NC(=O)C(C)NC(=O)C(C)NC(=O)OCc1ccccc1 (stereo not given) (Cbz-AAAAAAA-OEt; configuration not given here)	> 200 µM	> 200 µM	
Cc1cc2c(nn1)CCc1c-2no[n+]1[O-]	> 200 µM	174 µM	
Cc1cn([C@H]2C[C@H](N=[N+]=[N-])[C@@H](COC(=O)CCC(=O)OC3CN(Cc4ccccc4)C(=O)N(Cc4ccccc4)C3)O2)c(=O)[nH]c1=O	0.955 µM	89.1 µM	
COc1cc2cc3c4c(cc(OC)c(OC)c4c2cc1OC)CCN3C(=O)CCC(=O)O	> 200 µM	123 µM	
